Reference: patent US20070082928A1, “Method for treating anxiety disorders, substance abuse/dependence, binge-eating disorders, insomnia and drug-induced flashbacks” (priority 2005, published 2007)

Key:
Type in all cases: in vivo, human
[1] = test system: Person with GAD anxiety symptoms; test: Case history 3: donepezil in a patient with GAD anxiety symptoms persisting after MDD
Excerpt: A person complained about insomnia, restlessness, tension, headaches, gastric symptoms, upset stomach, dizziness, fatigue, loss of appetite, and libido deficit. A person has been married for 13 years. Their spouse is a person working as an assistant director. The couple was well functioning, with two children, a child and a child in good health. A person was in good physical health and had no significant medical antecedent. A person had no previous psychiatric antecedent, nor any family history of mental disorders. […] […] a person is the youngest of 14 brothers and sisters.
A person was hospitalized in the Department of Psychiatry at Saint-Antoine Hospital and treated for MDD with venlafaxine from July 15 to Aug. […] Their anxiety consisted of excessive worrying, restlessness, tension, fatigue, loss of concentration, irritability, severe muscle tension and difficulty falling asleep. These symptoms met the GAD DSM IV criteria and persisted during the depressive episode and also when they no longer met the criteria for MDD. […] 9, 2005 to treat their anxiety symptoms. […] On Sep.

[2] = test system: Person with Generalized Anxiety (GAD), PTSD and cannabis dependence; test: Case History 2: donepezil in a patient with GAD, PTSD, cannabis dependence, alcohol dependence and binge-eating disorder
Excerpt: a person has no other psychiatric antecedent.
Despite them on-going biweekly psychotherapy, they continued to abuse cannabis at about 2 to 3 joints a day.

[3] = test system: Person with post-traumatic stress disorder (PTSD); test: Case History 1: donepezil in a rape victim with PTSD after suspected GHB intake
Excerpt: A person had been living in NYC for their work since January 2005. On Jun. 15, 2005, they met some friends after dinner and went dancing with them. They experienced a strange sensation late in the evening after drinking a glass of champagne. They remembered feeling drowsy and confused. They had to stop dancing because of a severe sedation and took a taxi. A […] they didn't know until now accompanied them to their apartment, which was unusual for them.
They didn't remember anything about the taxi drive and their trip back home. They remembered being with an unknown person and strangely being led down on their couch in their living room and looking at them.
Thereafter they repeatedly saw themself waking up in the morning and looking at their bed where they had discovered a preservative, a proof that a sexual behaviour had occurred between 2 and 6 am.
They experienced terrifying nightmares and repetitive uncontrolled behaviour consisting of looking at […] waking up alone with a desperate feeling of being sexually abused and of loneliness. […] About the evening and the rape they remembered only their inability to move, refusing sexual advances of the unknown person, and feeling uncomfortable because of their unusual behaviour.
On Jun. 20, 2005, they consulted in the Department of Psychiatry at Saint-Antoine Hospital in Paris. […] A legal procedure was initiated in NYC before coming back to Paris. […] A toxicological analysis was performed using hair sample for detection of the suspected drug GHB.
During the initial interview, they were unable to give any detail about the evening and the night of the rape. A person requested a method to decrease their anxiety symptoms, insomnia and nightmares associated with the traumatic event. After a discussion about the case, it was decided on Jun.

[4] = two weeks after increase to 5 mg b.i.d.
[5] = 5 mg once a day, after one week
[6] = 5 mg once a day, patient report
[7] = 5 mg once a day, after one week, on ongoing venlafaxine

COc1ccc(C(CN(C)C)C2(O)CCCCC2)cc1 (stereo not drawn) [venlafaxine]
anxiety symptoms ([1]; ongoing venlafaxine 100 mg t.i.d.): did not respond | depression (MDD) ([1]; treated from July 15 to Aug. 8, 2005, in hospital): recovered completely

CN1CCN2c3ncccc3Cc3ccccc3C2C1 (stereo not drawn) [mirtazapine]
depressive symptoms (MDD) ([2]; 15 mg h.s. with biweekly psychotherapy, after 2 months of treatment): complete recovery

COc1cc2c(cc1OC)C(=O)C(CC1CCN(Cc3ccccc3)CC1)C2.Cl (racemic) [donepezil, (±)-2,3-dihydro-5,6-dimethoxy-2-[[1-(phenylmethyl)-4-piperidinyl]methyl]-1H-inden-1-one hydrochloride]
recall of details of the traumatic event ([3]; 5 mg once a day, after 7 days): some of the details of the post-traumatic event | sleep and nightmares ([3]; 5 mg once a day, after 7 days): slept better without nightmares | anxiety ([3]; 5 mg once a day, after one week of treatment): began to feel less anxious | anxiety and tension [3, 4]: no more anxious nor tense | sleep [3, 4]: returned to normal without nightmares | alcohol intake ([2]; 5 mg once a day): significantly produced a decrease | verbal fluency and cognitive performances ([2]; 5 mg once a day): did not improve | binge-eating disorder [2, 5]: completely disappeared | nightmares [2, 5]: completely disappeared | craving for caffeine, nicotine, cannabis and binge-eating ([2]; 5 mg once a day, follow-up): significantly improved to the extent of disappearing | GAD anxiety symptoms (nervousness, muscle tension, restlessness, anxiety, worry, insomnia, and tremor) ([2]; 5 mg once a day, follow-up August 30 and Sept. 2, 2005): much improved | euphoria [2, 6]: no longer euphoric | judgement [2, 6]: significantly improved | motor coordination [2, 6]: improved | sensations of slowed time [2, 6]: no more sensations of slowed time | social withdrawal [2, 6]: no longer socially withdrawn | cannabis smoking ([2]; 5 mg once a day, before: 2 to 3 joints a day): completely stop cannabis smoking without any withdrawal symptoms, nor craving symptoms | effect of dose increase (nightmares related to drug withdrawal) ([2]; increased to 5 mg b.i.d.): further improvement with disappearance of nightmares | anti-anxiety effect [1, 7]: definite anti-anxiety effect | side effects [1, 7]: No side effects were observed | anxiety symptoms / return to work ([1]; 6 days after increase to 5 mg b.i.d.): able to return to work without any anxious symptoms
